Laboratory results from PubChem BioAssay (NCI).
“And” between values parts separate entries of the source, which are not always exact repeats. Equal entries are not always repeated.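 How tested: cells in 96-well plates exposed to compound for 48 hours at five concentrations. GI50: concentration for 50% inhibition of growth. TGI marks complete inhibition of growth.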

Key:
Test in all cases: NCI tumour cell line growth inhibition, 48 h
MDA-N = test system: MDA-N
DMS 273 small cell lung = test system: DMS 273 small cell lung
XF 498 CNS = test system: XF 498 CNS
LXFL 529 NSCLC = test system: LXFL 529 NSCLC
DMS 114 small cell lung = test system: DMS 114 small cell lung
HOP-18 NSCLC = test system: HOP-18 NSCLC
SNB-78 CNS = test system: SNB-78 CNS
M19-MEL melanoma = test system: M19-MEL melanoma
RXF-631 renal = test system: RXF-631 renal
P388/ADR leukemia = test system: P388/ADR leukemia
P388 leukemia = test system: P388 leukemia

Row | Compound | TGI (MDA-N) [µM] | TGI (DMS 273 small cell lung) | TGI (XF 498 CNS) | TGI (LXFL 529 NSCLC) [µM] | TGI (DMS 114 small cell lung) | TGI (HOP-18 NSCLC) | TGI (SNB-78 CNS) [µM] | TGI (M19-MEL melanoma) | TGI (RXF-631 renal) [µM] | also measured
1 | O=c1[nH]cc(/C=N\Nc2ccccc2)c(=O)[nH]1 | > 100 | – | – | – | – | – | – | – | – | –
2 | O=C(O)C1=C(C(=O)Nc2ccccc2)C2C=CC1C2 (stereo not given) | – | > 100 µM | > 100 µM | > 100 | > 100 µM | > 100 µM | > 100 | > 100 µM | – | –
3 | C[C@H]1CC[C@H]([C@@H](C)[C@H]2[C@@H](O)C[C@H]3[C@@H]4CC[C@H]5C[C@@H](O)CC[C@]5(C)[C@H]4CC[C@]23C)NC1 | 43.8 | – | – | – | – | – | – | – | – | –
4 | CN(C)c1ncnc2c1Cc1ccccc1C(=O)N2C | – | > 100 µM | > 100 µM | > 100 | > 100 µM | > 100 µM | > 100 | > 100 µM | > 100 | –
5 | O=C(Cc1nc2ccccc2s1)Nc1ccc(Cl)cc1 | – | > 100 µM | > 100 µM | > 100 | – | – | > 100 | > 100 µM | – | –
6 | COc1cc2c3c(c4ccc(OC)c(OC)c4c2cc1OC)CN1CCC[C@@H]1C3 | 12.2 | – | – | – | – | – | – | – | – | –
7 | CCN(CC)CC.CCOc1ccc(NC(=O)N=C=[N-])cc1.[CH-]1CCCCC1.[CH-]1CCCCC1.[CH-]1CCCCC1.[Cl-].[Sn+4] | 0.0471 | 0.0482 µM | 0.103 µM | 0.0488 | 0.0594 µM | 0.0376 µM | 0.373 | 0.0513 µM | 0.0648 | GI50 (DMS 273 small cell lung): 0.0185 µM; GI50 (XF 498 CNS): 0.0335 µM; GI50 (LXFL 529 NSCLC): 0.0193 µM; GI50 (MDA-N): 0.0205 µM; GI50 (DMS 114 small cell lung): 0.0214 µM; GI50 (HOP-18 NSCLC): 0.0135 µM; GI50 (SNB-78 CNS): 0.0472 µM; GI50 (RXF-631 renal): 0.0202 µM; GI50 (M19-MEL melanoma): 0.0208 µM
8 | COc1cccc(NC(=O)C(C)(C)C)c1C=O | – | – | 85.4 µM | > 100 | > 100 µM | > 100 µM | > 100 | > 100 µM | > 100 | –
9 | CC1=CC(=O)CC(C)(C)C1(O)/C=C/C(C)=C/C(=O)O (stereo not given) | > 100 | – | – | – | – | – | – | – | – | –
10 | CCCOc1ccc(-c2nc(-c3ccc(N=Cc4ccc(N(CCOS(C)(=O)=O)CCOS(C)(=O)=O)cc4C)cc3)cs2)cc1 | > 85 | – | – | – | – | – | – | – | – | –
11 | COc1c2ccoc2cc2oc(=O)ccc12 | > 100 | – | – | – | – | – | – | – | – | –
12 | COc1cc(Br)c(CC2(C#N)c3ccccc3C3C(N2C(=O)c2ccccc2)C3(Cl)Cl)cc1OC (stereo not given) | – | > 65.5 µM | > 65.5 µM | > 65.5 | > 65.5 µM | > 65.5 µM | > 65.5 | – | – | –
13 | CCSC(SCC)c1cc2c(cc1Br)OCO2 | – | 20.1 µM | 59.4 µM | – | 50.4 µM | – | > 100 | > 100 µM | 73.7 | –
14 | c1ccc(N=c2snc3scc(-c4ccccc4)n23)cc1 | – | > 100 µM | 66.6 µM | > 100 | 88.8 µM | > 100 µM | > 100 | > 100 µM | > 100 | –
15 | CC1=C(C(=O)Nc2ccccc2)C(c2ccc([N+](=O)[O-])cc2)C(C(=O)Nc2ccccc2)=C(C)N1 | – | 72.4 µM | 49.2 µM | 46.5 | 52.1 µM | – | > 100 | 32.1 µM | > 100 | –
16 | C[C@H](N)C(=O)N[C@@H]1[C@H]2C(=C(O)C[C@@H](O)[C@@H]2O)C(=O)O[C@]1(C)C(Cl)Cl | – | 1.57 µM and 1.44 µM | 1.05 µM and 0.31 µM | 1.53 | 0.98 µM and 1.28 µM | 4.39 µM and 2.76 µM | 2.1 | 1.22 µM and 2.62 µM | 1.93 | TGI (P388/ADR leukemia): 2.1 µM; GI50 (DMS 273 small cell lung): 0.279 µM; GI50 (XF 498 CNS): 0.211 µM; GI50 (MDA-N): 0.438 µM; GI50 (HOP-18 NSCLC): 0.375 µM; TGI (P388 leukemia): 0.453 µM
17 | O=C(NCCO)c1cc2c(cn1)[nH]c1ccccc12 | – | > 100 µM | > 100 µM | > 100 | > 100 µM | – | > 100 | – | > 100 | –
18 | CCC(=O)C1(c2ccccc2)CCN(C)CC1 | > 100 | – | – | – | – | – | – | – | – | –

Row | Compound | TGI (MDA-N) [µM] | TGI (DMS 273 small cell lung) | TGI (XF 498 CNS) | TGI (LXFL 529 NSCLC) [µM] | TGI (DMS 114 small cell lung) | TGI (HOP-18 NSCLC) | TGI (SNB-78 CNS) [µM] | TGI (M19-MEL melanoma) | TGI (RXF-631 renal) [µM] | also measured
19 | Cc1ccc(-n2c3nc(=O)n(C)c(=O)c-3nc3ccccc32)cc1 | – | 20.1 µM | 55.9 µM | > 100 | 27.6 µM | 40.4 µM | > 100 | – | – | –
20 | O=C1OC(c2ccccc2)=N/C1=C\c1ccc2ccccc2c1 | – | – | > 100 µM | – | > 100 µM | > 100 µM | > 100 | > 100 µM | – | –
21 | Nc1nc(Cl)cc(NCCCCCNc2cc(Cl)nc(N)n2)n1 | – | > 100 µM | – | > 100 | – | > 100 µM | 88 | – | > 100 | –
22 | CCOC(=O)Cc1nc2ccccc2s1 | – | 55.4 µM | 28 µM | 29.4 | – | 74.3 µM | 33 | 40.6 µM | 33.8 | –
23 | C=CC(=O)N1C/C(=C\c2ccccc2)C(=O)/C(=C/c2ccccc2)C1 | 1.07 | 2.13 µM | 3.54 µM | 2.82 | 2.73 µM | 9.97 µM | – | 2.48 µM | – | GI50 (MDA-N): 0.427 µM
24 | CCc1c2c(nc3cc4c(c(N)c13)OCO4)-c1cc3c(c(=O)n1C2)COC(=O)[C@]3(O)CC | > 100 | – | – | – | – | – | – | – | – | –
25 | CNC1C(O)C(OC2C(N)CC(N)C(OC3OC(CN)=CCC3N)C2O)OCC1(C)O (stereo not given) | > 100 | – | – | – | – | – | – | – | – | –
26 | COc1cc2c(c(OC)c1O)-c1ccc(OC)c(=O)cc1[C@@H](NC(=O)C(F)(F)F)CC2 | 0.0628 | – | – | – | – | – | – | – | – | –
27 | COc1ccc2c(c1O)C(=O)C(CCC(=O)O)CC2 (stereo not given) | – | > 100 µM | > 100 µM | > 100 | > 100 µM | > 100 µM | > 100 | > 100 µM | > 100 | –
28 | C=CCCCn1ccc2ccccc21 | – | – | > 100 µM | > 100 | > 100 µM | > 100 µM | – | > 100 µM | > 100 | –
29 | CCCCCCCCCCCCCCCCOCC(CN(C)CCN(C)C)OCCCCCCCCCCCCCCCC (stereo not given) | – | > 100 µM | – | > 100 | > 100 µM | > 100 µM | > 100 | > 100 µM | > 100 | –
30 | C[N+](C)(C)CC(=O)N/N=C(\CCC(=O)NCCc1ccccc1)CC(=O)c1ccccc1 | – | > 100 µM | > 100 µM | > 100 | > 100 µM | > 100 µM | > 100 | > 100 µM | – | –
31 | C#Cc1c(C)c(/C=C/C(C)=C/C=C/C(C)=C/C(=O)OC)n(C)c1C | – | – | > 100 µM | > 100 | > 100 µM | – | > 100 | > 100 µM | > 100 | –
32 | C#CCSc1n[nH]c(-c2ccco2)n1 | > 100 | – | – | – | – | – | – | – | – | –
33 | Cc1nnc(N=Nc2c(O)[nH]c3c(Cl)cc(Cl)cc23)n1N | – | – | – | > 100 | – | > 100 µM | > 100 | > 100 µM | – | –
34 | CO/[N+]([O-])=C\C(=O)N/C=C/C(=O)O | > 100 | – | – | – | – | – | – | – | – | –
35 | O=C1Nc2cc(Cl)ccc2N=CC1NC(=O)C(c1ccccc1)c1ccccc1Cl (stereo not given) | – | > 100 µM | – | > 100 | > 100 µM | > 100 µM | > 100 | > 100 µM | > 100 | –
36 | COCc1c(CO)cnc(C)c1OC1OC(CO)C(O)C(O)C1O (stereo not given) | – | > 100 µM | > 100 µM | > 100 | > 100 µM | – | – | > 100 µM | – | –
